According to ChEMBL document CHEMBL1149299, “Hemolytic effects of water-soluble fullerene derivatives” (J Med Chem, 2004):

Legend:
[1] = Cytotoxicity against […] HepG2 cells by MTT assay; type: cell-based; details: read-out: LD50 (the source's name)
[2] = Cytotoxicity against pig LLC-PK1 cells by MTT assay; type: cell-based, Sus scrofa; details: read-out: LD50 (the source's name)
[3] = Cytotoxicity against human MCF7 by MTT assay; type: cell-based; details: MCF7 cells, read-out: LD50 (the source's name)
[4] = test system: Erythrocyte; assay: Hemolytic activity in human RBC at 30 uM; type: functional
[5] = test system: Erythrocyte; assay: Hemolytic activity in human RBC at 80 uM; type: functional

| SMILES | CC50 [1] | CC50 [2] | CC50 [3] | Activity [4] | Activity [5] |
| --- | --- | --- | --- | --- | --- |
| CCCCCCCCCCCCCCCCCC(=O)NCCOCCOCCN.Cl | > 80 µM | > 80 µM | > 80 µM | 34% | 53% |
| C[N+]1(CCOCCOCCN)CCCC1 | > 80 µM | > 80 µM | > 80 µM | – | – |
